Source: patent US7988952B2, “Delivery of drug esters through an inhalation route” (Alexza Pharmaceuticals, Inc., priority 2001, dated 2011)

Assays:
[1] = Volatilization from halogen bulb; purity of the aerosol by reverse-phase HPLC; type: physicochemical; settings: thermal vapor from coated aluminum foil on 300 watt halogen tube, 60 V 5-12 s or 90 V 2.5-3.5 s; HPLC at 225 nm
Method: A solution of drug in approximately 120 μL dichloromethane is coated on a 3.5 cm×7.5 cm piece of aluminum foil (precleaned with acetone). The dichloromethane is allowed to evaporate. The coated foil is wrapped around a 300 watt halogen tube (Feit Electric Company, Pico Rivera, Calif.), which is inserted into a glass tube sealed at one end with a rubber stopper. Running 60 V of alternating current (driven by line power controlled by a variac) through the bulb for 5-12 s or 90 V for 2.5-3.5 s affords thermal vapor (including aerosol), which is collected on the glass tube walls. (When desired, the system is flushed through with argon prior to volatilization.) Reverse-phase HPLC analysis with detection by absorption of 225 nm light is used to determine the purity of the aerosol.
Table 1, which follows, provides data from drugs volatilized using the above-recited general procedure.

[2] = Human serum hydrolysis studies of drug esters; type: in vitro ADME; settings: 37° C., read-out: t1/2 for hydrolysis
Method: Human serum (2.34 mL) is placed in a test tube. To the serum is added 260 μL of a 10 mM solution of drug ester in acetonitrile. The tube is placed in a 37° C. incubator, and at various time points a 500 μL aliquot is removed. The aliquot is mixed with 500 μL methanol, and the mixture is vortex mixed and centrifuged. A sample of the supernatant is analyzed by HPLC obtain the ratio of drug ester to drug acid or drug alcohol. An Arrhenius plot of the data provides a t1/2 for hydrolysis.

[3] = Hydrolysis studies of drug esters in PBS solution (pH 7.5); type: physicochemical; settings: PBS pH 7.5, room temperature, read-out: t1/2 for hydrolysis
Method: Drug ester (20 μL, 10 mM acetonitrile) is added to 1 mL PBS solution (pH 7.5) at room temperature. At intermittent time points, an aliquot of the resulting mixture is injected into an HPLC to obtain the ratio of drug ester to drug acid or drug alcohol. An Arrhenius plot of the data provides a t1/2 for hydrolysis.

half-life at 1 mM [2] [h] | half-life at 0.196 mM [3] [h] | Molecule | AEROSOL PURITY [1] [%]
– | – | CC(=O)Oc1ccc2c(c1OC(C)=O)-c1cccc3c1C(C2)N(C)CC3.Cl (stereo not drawn) [Apomorphine Diacetate-HCl] | 94
– | – | CCOC(=O)Cc1c(C)n(C(=O)c2ccc(Cl)cc2)c2ccc(OC)cc12 [Indomethacin Ethyl Ester] | >99
– | – | COC(=O)Cc1c(C)n(C(=O)c2ccc(Cl)cc2)c2ccc(OC)cc12 [Indomethacin Methyl Ester] | 99
– | – | COc1ccc2c(c1)c(CC(=O)OCCN(C)C)c(C)n2C(=O)c1ccc(Cl)cc1 [Indomethacin Norcholine Ester] | 100
3.73 | > 48 | CCOC(=O)C(C)c1cccc(C(=O)c2ccccc2)c1 (stereo not drawn) [Ketoprofen Ethyl Ester] | 99.65
2.4 | > 48 | COC(=O)C(C)c1cccc(C(=O)c2ccccc2)c1 (stereo not drawn) [Ketoprofen Methyl Ester] | 99
– | – | CC(C(=O)OCCN(C)C)c1cccc(C(=O)c2ccccc2)c1 (stereo not drawn) [Ketoprofen Norcholine Ester] | 100
– | – | CCOC(=O)C1CCn2c(C(=O)c3ccccc3)ccc21 (stereo not drawn) [Ketorolac Ethyl Ester] | >99
– | – | COC(=O)C1CCn2c(C(=O)c3ccccc3)ccc21 (stereo not drawn) [Ketorolac Methyl Ester] | 100
– | – | CN(C)CCOC(=O)C1CCn2c(C(=O)c3ccccc3)ccc21 (stereo not drawn) [Ketorolac Norcholine Ester, 2-(N,N-Dimethylamino)Ethyl Ester of Ketorolac] | 100
– | – | Apomorphine Diacetate | 96.9
